# Source: the kinase profiling compilation of Christmann-Franck et al. (2016)
# Where “and” joins values, the source holds several entries; their conditions need not be identical. Identical values can stand only once.
# Columns and labels:
# Test in all cases: radiometric filter-binding kinase assay, Kinase HotSpot
# Details in all cases: compound 0.5 µM; ATP 10 µM
# [1] = molecular target: EPHA5 (human) (UniProt P54756)
# [2] = molecular target: CSK (human) (UniProt P41240)
# [3] = molecular target: TSSK1B (human) (UniProt Q9BXA7)
# [4] = molecular target: LYN (human) (UniProt P07948)
# [5] = molecular target: PRKCB1 (human) (UniProt P05771)
# Chain of PRKCB1 (human) (P05771 whole entry, looked up): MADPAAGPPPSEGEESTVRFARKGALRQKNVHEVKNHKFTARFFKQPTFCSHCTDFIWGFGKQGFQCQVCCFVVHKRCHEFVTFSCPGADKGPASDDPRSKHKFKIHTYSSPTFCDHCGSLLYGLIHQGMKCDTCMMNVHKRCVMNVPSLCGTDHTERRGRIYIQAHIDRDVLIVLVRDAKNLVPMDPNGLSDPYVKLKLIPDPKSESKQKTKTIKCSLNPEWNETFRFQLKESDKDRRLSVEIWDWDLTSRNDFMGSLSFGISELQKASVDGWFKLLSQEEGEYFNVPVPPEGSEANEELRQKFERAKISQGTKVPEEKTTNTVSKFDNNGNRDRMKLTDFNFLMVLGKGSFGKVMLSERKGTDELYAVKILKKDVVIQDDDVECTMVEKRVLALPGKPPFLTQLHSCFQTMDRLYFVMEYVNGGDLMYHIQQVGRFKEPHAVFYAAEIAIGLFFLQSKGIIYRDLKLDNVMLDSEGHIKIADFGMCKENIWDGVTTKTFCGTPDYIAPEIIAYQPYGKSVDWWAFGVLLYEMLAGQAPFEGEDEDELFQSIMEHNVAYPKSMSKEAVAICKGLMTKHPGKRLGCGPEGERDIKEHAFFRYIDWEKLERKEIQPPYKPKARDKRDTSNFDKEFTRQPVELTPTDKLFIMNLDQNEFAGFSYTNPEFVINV
# [6] = molecular target: PAK7 (human) (UniProt Q9P286)
# [7] = molecular target: NUAK2 (human) (UniProt Q9H093)
# [8] = molecular target: PTK2B (human) (UniProt Q14289)
# [9] = molecular target: MAP3K9 (human) (UniProt P80192)
# [10] = molecular target: PRKCG (human) (UniProt P05129)
# [11] = molecular target: DAPK2 (human) (UniProt Q9UIK4)
# [12] = molecular target: NEK3 (human) (UniProt P51956)
# [13] = molecular target: PHKG2 (human) (UniProt P15735)
# [14] = molecular target: CDK4 CCND1 (human) (UniProt P24385+P11802)
# [15] = molecular target: ACVRL1 (human) (UniProt P37023)
# [16] = molecular target: CDK1 CCNA2 (human) (UniProt P06493+P20248)
# [17] = molecular target: LIMK1 (human) (UniProt P53667)
# [18] = molecular target: MARK1 (human) (UniProt Q9P0L2)
# [19] = molecular target: TAOK1 (human) (UniProt Q7L7X3)
# [20] = molecular target: MARK2 (human) (UniProt Q7KZI7)
# [21] = molecular target: BMX (human) (UniProt P51813)
# [22] = molecular target: INSR (human) (UniProt P06213)
# [23] = molecular target: DYRK4 (human) (UniProt Q9NR20)
# [24] = molecular target: CDK4 CCND3 (human) (UniProt P30281+P11802)
# [25] = molecular target: MAP3K11 (human) (UniProt Q16584)
# [26] = molecular target: GRK6 (human) (UniProt P43250)
# [27] = molecular target: GRK4 (human) (UniProt P32298)
# [28] = molecular target: STK25 (human) (UniProt O00506)
# [29] = molecular target: BLK (human) (UniProt P51451)
# Chain of BLK (human) (P51451 whole entry, looked up): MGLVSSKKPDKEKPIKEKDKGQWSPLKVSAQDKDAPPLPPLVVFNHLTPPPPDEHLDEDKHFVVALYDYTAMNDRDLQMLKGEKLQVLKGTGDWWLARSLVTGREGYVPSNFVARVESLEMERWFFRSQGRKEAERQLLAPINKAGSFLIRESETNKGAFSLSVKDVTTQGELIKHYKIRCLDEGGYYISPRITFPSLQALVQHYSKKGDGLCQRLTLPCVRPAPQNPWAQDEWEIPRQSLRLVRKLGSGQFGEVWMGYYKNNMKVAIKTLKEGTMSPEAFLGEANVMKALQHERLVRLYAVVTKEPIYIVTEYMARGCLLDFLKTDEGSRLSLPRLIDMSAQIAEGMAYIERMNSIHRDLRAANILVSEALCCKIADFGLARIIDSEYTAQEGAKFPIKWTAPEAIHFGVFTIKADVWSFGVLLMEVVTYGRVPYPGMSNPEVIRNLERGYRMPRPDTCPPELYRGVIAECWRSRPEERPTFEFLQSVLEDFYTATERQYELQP
# [30] = molecular target: STK10 (human) (UniProt O94804)
# [31] = molecular target: NEK1 (human) (UniProt Q96PY6)
# [32] = molecular target: CAMK4 (human) (UniProt Q16566)
# [33] = molecular target: DCLK2 (human) (UniProt Q8N568)
# Chain of DCLK2 (human) (Q8N568 whole entry, looked up): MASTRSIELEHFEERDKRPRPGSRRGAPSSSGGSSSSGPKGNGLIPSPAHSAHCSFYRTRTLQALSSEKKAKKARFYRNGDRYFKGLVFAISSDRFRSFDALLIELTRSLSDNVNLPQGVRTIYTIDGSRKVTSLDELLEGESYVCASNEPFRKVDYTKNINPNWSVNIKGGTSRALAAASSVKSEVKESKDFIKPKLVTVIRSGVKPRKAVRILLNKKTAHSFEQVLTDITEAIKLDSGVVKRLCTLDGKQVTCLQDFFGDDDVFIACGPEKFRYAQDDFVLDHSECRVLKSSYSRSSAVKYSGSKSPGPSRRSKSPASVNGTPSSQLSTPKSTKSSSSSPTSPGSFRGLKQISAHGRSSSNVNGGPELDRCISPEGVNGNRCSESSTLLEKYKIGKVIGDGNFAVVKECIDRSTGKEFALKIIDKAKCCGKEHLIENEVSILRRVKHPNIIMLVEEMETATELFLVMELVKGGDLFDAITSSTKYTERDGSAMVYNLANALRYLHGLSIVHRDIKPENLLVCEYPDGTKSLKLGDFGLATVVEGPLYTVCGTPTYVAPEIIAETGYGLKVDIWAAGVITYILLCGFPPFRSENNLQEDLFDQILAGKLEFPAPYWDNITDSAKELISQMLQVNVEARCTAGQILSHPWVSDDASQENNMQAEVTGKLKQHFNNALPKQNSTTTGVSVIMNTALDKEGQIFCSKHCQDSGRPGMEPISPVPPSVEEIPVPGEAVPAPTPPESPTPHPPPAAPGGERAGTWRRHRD
# [34] = molecular target: STK4 (human) (UniProt Q13043)
# [35] = molecular target: PASK (human) (UniProt Q96RG2)
# [36] = molecular target: MAP3K3 (human) (UniProt Q99759)
# [37] = molecular target: LRRK2 (human) (UniProt Q5S007)
# [38] = molecular target: STK11 (human) (UniProt Q15831)
# [39] = molecular target: PRKCE (human) (UniProt Q02156)
# [40] = molecular target: TNK2 (human) (UniProt Q07912)
# Chain of TNK2 (human) (Q07912 whole entry, looked up): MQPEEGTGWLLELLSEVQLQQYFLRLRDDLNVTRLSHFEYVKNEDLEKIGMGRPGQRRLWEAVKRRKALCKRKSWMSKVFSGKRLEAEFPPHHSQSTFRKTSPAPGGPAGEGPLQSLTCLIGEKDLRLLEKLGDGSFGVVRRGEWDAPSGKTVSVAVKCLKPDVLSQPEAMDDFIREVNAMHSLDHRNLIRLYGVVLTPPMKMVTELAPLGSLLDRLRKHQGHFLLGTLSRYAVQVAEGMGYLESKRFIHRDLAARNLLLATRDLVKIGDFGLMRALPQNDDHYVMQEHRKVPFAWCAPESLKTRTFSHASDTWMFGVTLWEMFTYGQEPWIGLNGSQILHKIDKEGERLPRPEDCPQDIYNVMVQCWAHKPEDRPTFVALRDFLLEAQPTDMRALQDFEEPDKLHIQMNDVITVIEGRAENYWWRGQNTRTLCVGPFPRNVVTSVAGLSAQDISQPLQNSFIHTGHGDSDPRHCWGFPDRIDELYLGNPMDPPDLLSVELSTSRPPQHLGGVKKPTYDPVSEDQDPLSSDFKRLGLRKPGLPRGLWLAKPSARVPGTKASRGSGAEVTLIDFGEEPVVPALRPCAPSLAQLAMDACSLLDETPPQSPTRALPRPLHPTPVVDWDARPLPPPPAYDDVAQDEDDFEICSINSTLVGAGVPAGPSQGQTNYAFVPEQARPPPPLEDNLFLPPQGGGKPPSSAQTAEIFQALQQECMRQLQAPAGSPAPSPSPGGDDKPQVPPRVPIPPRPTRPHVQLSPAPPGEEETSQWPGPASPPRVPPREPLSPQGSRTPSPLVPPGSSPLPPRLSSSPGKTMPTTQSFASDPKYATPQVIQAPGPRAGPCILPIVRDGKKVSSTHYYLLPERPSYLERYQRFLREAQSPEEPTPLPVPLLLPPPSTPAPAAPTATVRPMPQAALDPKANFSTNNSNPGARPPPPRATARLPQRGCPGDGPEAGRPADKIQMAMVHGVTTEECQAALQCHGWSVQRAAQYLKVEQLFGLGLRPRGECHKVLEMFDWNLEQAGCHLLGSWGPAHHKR
# [41] = molecular target: IKBKE (human) (UniProt Q14164)
# [42] = molecular target: AURKC (human) (UniProt Q9UQB9)
# Chain of AURKC (human) (Q9UQB9 whole entry, looked up): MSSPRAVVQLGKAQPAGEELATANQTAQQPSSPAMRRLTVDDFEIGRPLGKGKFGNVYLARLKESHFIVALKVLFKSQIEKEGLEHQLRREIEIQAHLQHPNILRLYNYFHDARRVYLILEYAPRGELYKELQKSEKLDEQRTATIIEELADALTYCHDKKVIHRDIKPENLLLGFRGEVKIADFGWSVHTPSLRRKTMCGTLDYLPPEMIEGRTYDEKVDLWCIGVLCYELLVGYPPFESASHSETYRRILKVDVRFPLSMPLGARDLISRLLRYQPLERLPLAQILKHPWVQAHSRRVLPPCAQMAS
# Chain of EPHA5 (human) (P54756 whole entry, looked up): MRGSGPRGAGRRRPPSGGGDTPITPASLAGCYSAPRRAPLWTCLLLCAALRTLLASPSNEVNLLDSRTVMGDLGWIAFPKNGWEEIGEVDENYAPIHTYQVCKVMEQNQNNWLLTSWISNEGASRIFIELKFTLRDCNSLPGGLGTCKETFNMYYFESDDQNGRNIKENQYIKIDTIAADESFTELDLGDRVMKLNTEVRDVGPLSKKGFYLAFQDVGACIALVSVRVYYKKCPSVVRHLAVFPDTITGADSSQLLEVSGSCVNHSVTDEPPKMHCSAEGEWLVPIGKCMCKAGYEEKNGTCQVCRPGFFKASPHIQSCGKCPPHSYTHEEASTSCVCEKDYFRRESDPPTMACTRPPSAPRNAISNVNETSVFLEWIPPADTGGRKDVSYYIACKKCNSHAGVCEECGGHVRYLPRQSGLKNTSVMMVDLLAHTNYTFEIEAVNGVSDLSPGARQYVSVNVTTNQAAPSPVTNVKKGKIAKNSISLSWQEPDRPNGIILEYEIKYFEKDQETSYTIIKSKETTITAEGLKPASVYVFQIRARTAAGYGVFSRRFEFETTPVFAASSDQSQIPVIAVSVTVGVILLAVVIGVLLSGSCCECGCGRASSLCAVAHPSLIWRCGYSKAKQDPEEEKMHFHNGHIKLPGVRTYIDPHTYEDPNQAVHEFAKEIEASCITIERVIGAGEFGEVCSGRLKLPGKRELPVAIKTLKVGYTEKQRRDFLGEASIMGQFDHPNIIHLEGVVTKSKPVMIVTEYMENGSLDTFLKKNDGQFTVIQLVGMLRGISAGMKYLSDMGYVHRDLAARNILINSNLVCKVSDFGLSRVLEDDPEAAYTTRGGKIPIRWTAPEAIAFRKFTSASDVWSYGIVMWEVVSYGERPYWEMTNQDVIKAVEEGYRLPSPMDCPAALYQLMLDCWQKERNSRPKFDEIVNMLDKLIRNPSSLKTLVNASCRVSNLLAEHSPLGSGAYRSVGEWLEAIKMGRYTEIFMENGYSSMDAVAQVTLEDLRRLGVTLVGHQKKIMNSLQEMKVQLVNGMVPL
smiles,measurement,setting,value
C#Cc1cccc(Nc2ncnc3cc(OCCOC)c(OCCOC)cc23)c1,residual activity,[1],99.1%
same,residual activity,[2],100%
same,residual activity,[3],78.9%
same,residual activity,[4],72.5% and 75.4%
same,residual activity,[5],92.4%
same,residual activity,[6],97.3%
same,residual activity,[7],95.3%
same,residual activity,[8],97.6%
same,residual activity,[9],111%
same,residual activity,[10],84.1%
same,residual activity,[11],92.5%
same,residual activity,[12],95.6%
same,residual activity,[13],97.9%
same,residual activity,[14],96%
same,residual activity,[15],101%
same,residual activity,[16],99.6%
same,residual activity,[17],90.4%
same,residual activity,[18],130%
same,residual activity,[19],98.3%
same,residual activity,[20],129%
same,residual activity,[21],100%
same,residual activity,[22],102%
same,residual activity,[23],101%
same,residual activity,[24],103%
same,residual activity,[25],104%
same,residual activity,[26],99.2%
same,residual activity,[27],89.6%
same,residual activity,[28],99.4%
same,residual activity,[29],79.4%
same,residual activity,[30],20.3%
same,residual activity,[31],73.8%
same,residual activity,[32],94.8%
same,residual activity,[33],102%
same,residual activity,[34],97.4%
same,residual activity,[35],97.4%
O=C1Cc2c([nH]c3ccc([N+](=O)[O-])cc23)-c2ccccc2N1,residual activity,[1],98.6%
same,residual activity,[2],96.6%
same,residual activity,[3],74.7%
same,residual activity,[5],105%
same,residual activity,[6],71.4%
same,residual activity,[7],68.6%
same,residual activity,[8],82.9%
same,residual activity,[36],100%
same,residual activity,[9],10.5%
same,residual activity,[10],92.5%
same,residual activity,[37],96.5%
same,residual activity,[11],97.2%
same,residual activity,[12],108%
same,residual activity,[13],101%
same,residual activity,[15],76.2%
same,residual activity,[16],54.5%
same,residual activity,[17],94.3%
same,residual activity,[18],62.5%
same,residual activity,[19],66.9%
same,residual activity,[20],52.4%
same,residual activity,[21],110%
same,residual activity,[22],101%
same,residual activity,[23],106%
same,residual activity,[25],11.8%
same,residual activity,[38],90.2%
same,residual activity,[39],111%
same,residual activity,[26],93.8%
same,residual activity,[27],99.3%
same,residual activity,[28],83.6%
same,residual activity,[40],74.9%
same,residual activity,[29],94.2%
same,residual activity,[30],80.4%
same,residual activity,[31],105%
same,residual activity,[32],89.2%
same,residual activity,[41],93.4%
same,residual activity,[33],105%
same,residual activity,[34],52.3%
same,residual activity,[35],86.9%
Nc1nc(Nc2ccc(S(N)(=O)=O)cc2)nn1C(=O)c1c(F)cccc1F,residual activity,[1],92.2%
same,residual activity,[2],88.9%
same,residual activity,[3],85.5%
same,residual activity,[4],103% and 80.5%
same,residual activity,[5],88.2%
same,residual activity,[6],85.4%
same,residual activity,[7],34%
same,residual activity,[8],79.7%
same,residual activity,[36],27.5%
same,residual activity,[9],25.6%
same,residual activity,[10],81.3%
same,residual activity,[37],48.3%
same,residual activity,[11],107%
same,residual activity,[42],28.3%
same,residual activity,[12],92.6%
same,residual activity,[13],102%
same,residual activity,[14],20%
same,residual activity,[15],88.5%
same,residual activity,[16],10.3%
same,residual activity,[17],16.6%
same,residual activity,[18],64.1%
same,residual activity,[19],18.8%
same,residual activity,[22],94.9%
same,residual activity,[23],105%
same,residual activity,[24],34.7%
same,residual activity,[25],47.2%
same,residual activity,[38],85.8%
same,residual activity,[39],97.2%
same,residual activity,[26],77.2%
same,residual activity,[27],94.7%
same,residual activity,[28],82.3%
same,residual activity,[40],68%
same,residual activity,[29],90.1%
same,residual activity,[30],17%
same,residual activity,[31],76.3%
same,residual activity,[32],96.8%
same,residual activity,[41],95.9%
same,residual activity,[33],85.3%
same,residual activity,[34],19.9%
same,residual activity,[35],91.1%
Nc1nc(Nc2ccc(S(N)(=O)=O)cc2)nn1C(=S)Nc1c(F)cccc1F,residual activity,[1],56.7%
same,residual activity,[2],76.8%
same,residual activity,[3],13.7%
same,residual activity,[5],75.2%
same,residual activity,[6],43.8%
same,residual activity,[7],9.73%
same,residual activity,[8],33.6%
same,residual activity,[36],5.41%
same,residual activity,[9],-0.373%
same,residual activity,[10],93%
same,residual activity,[37],1.33%
same,residual activity,[11],83%
same,residual activity,[42],16.2%
same,residual activity,[12],19.6%
same,residual activity,[13],95.5%
same,residual activity,[14],87.7%
same,residual activity,[15],15.1%
same,residual activity,[16],-0.154%
same,residual activity,[17],-0.611%
same,residual activity,[18],2.68%
same,residual activity,[19],11.3%
same,residual activity,[20],3.43%
same,residual activity,[21],77.5%
same,residual activity,[23],96.5%
same,residual activity,[24],3.67%
same,residual activity,[25],1.33%
same,residual activity,[38],23.5%
same,residual activity,[39],11.5%
same,residual activity,[26],89.4%
same,residual activity,[27],92.2%
same,residual activity,[28],8.18%
same,residual activity,[40],6.41%
same,residual activity,[29],38.6%
same,residual activity,[30],3.96%
same,residual activity,[31],6.11%
same,residual activity,[32],98.8%
same,residual activity,[41],67.2%
same,residual activity,[33],40.4%
same,residual activity,[34],2.16%
same,residual activity,[35],91.8%
O=C1Nc2cc(Br)ccc2/C1=C1/Nc2ccccc2/C1=N\O,residual activity,[1],70.4%
same,residual activity,[2],65.8%
same,residual activity,[3],83%
same,residual activity,[4],14.7% and 5.98%
same,residual activity,[5],98.5%
same,residual activity,[6],104%
same,residual activity,[7],73.4%
same,residual activity,[8],56.7%
same,residual activity,[36],107%
same,residual activity,[9],9.21%
same,residual activity,[10],90.9%
same,residual activity,[37],95.3%
same,residual activity,[11],91%
same,residual activity,[42],51.8%
same,residual activity,[12],84.4%
same,residual activity,[13],92.5%
same,residual activity,[14],93.4%
same,residual activity,[15],103%
same,residual activity,[16],59.7%
same,residual activity,[17],51.7%
same,residual activity,[18],64.2%
same,residual activity,[19],98.5%
same,residual activity,[20],61.8%
same,residual activity,[21],29.2%
same,residual activity,[22],92.5%
same,residual activity,[23],99.4%
same,residual activity,[24],75.9%
same,residual activity,[25],16%
same,residual activity,[38],42.1%
same,residual activity,[39],92.4%
same,residual activity,[26],79.9%
same,residual activity,[27],90.1%
same,residual activity,[28],96.3%
same,residual activity,[29],11.3%
same,residual activity,[30],52.8%
same,residual activity,[31],93.8%
same,residual activity,[32],96.3%
same,residual activity,[41],66.3%
same,residual activity,[33],99.1%
same,residual activity,[34],22.5%
same,residual activity,[35],97.9%
